Consider 2 molecules from patent US20170071976A1, “PHARMACEUTICAL SOLUTION HAVING ANTI-TUMOR EFFECT-ENHANCING AND TOXICITY-REDUCING EFFECT, AND PHARMACEUTICAL COMPOSITION COMPRISING SAME” (priority 2014, published 2017).

Data set [1] relates to dogs. The conditions noted are these: exogenous deuterium oxide; cited from earlier work.
For data set [2], the system named is human lung cancer A549 cells. As to the kind of experiment: Cell cycle by PI single staining (flow cytometry). It counts as cell-based. Particulars: deuterium oxide 30% v/v, 72 hours. On the procedure:
Effect of deuterium oxide on the cell cycle of human lung cancer A549 cells and human colon cancer HCT-116 cells Human lung cancer A549 cells and human colon cancer HCT-116 cells were provided by NANJING […] BIOTECH. CO., LTD., and cultured in an incubator at 37° C., 5% CO2 and saturated humidity. A KGA511 Cell cycle assay kit was provided by NANJING […] BIOTECH. CO., LTD. The flow cytometer was FACS Calibur provided by Becton-Dickinson, US. […] The cell suspension was centrifuged at 800 to 1,000 rpm for 5 min, and the supernatant was discarded; 1.4. A complete culture medium was added to the cell pellet which was well mixed by gentle pipetting, the cell suspension was transferred to a culture flask, and the cells were cultured by supplementing culture medium. […] When all the cells became round, an equal volume of culture medium containing serum was added to cease the digestion; 2.4. The cells were blown by pipetting to suspend, then drawn into a 15 ml centrifugal tube, and centrifuged at 1000 rpm for 5 min; 2.5. […] 1. Cells growing in the exponential phase were digested and inoculated to a 6-well plate; on the next day, after the cells attached to the wall, cell culture media containing corresponding test drugs were added according to different groups, and a negative control group was also set; 2. […] The cells were washed with PBS once (centrifuged at 2,000 rpm for 5 min), and 5×10^5 cells were collected; 4. […] In a detection apparatus, red fluorescence with an excitation wavelength of 488 nm was recorded.
Background: Flow cytometry measures light scatter and fluorescence of single cells or particles in a stream.

The subject of data set [3] is adult human. As to the kind of experiment: Theoretical extrapolation of the toxic deuterium oxide body content to an adult human. The conditions noted are these: adult human of 60 kg body weight. The text has this:
Deuterium oxide (heavy water, D2O, Mw: 20.03, CAS No. 7789-20-0) can be isolated from seawater. A normal body of adult human contains about 5 g deuterium oxide. […] Based on this experimental result, theoretically, assuming the body weight of an adult human is 60 kg, deuterium oxide that reaches 18 kg in the body starts to cause toxicity. However, it is actually impossible for a human body to have 18 kg deuterium oxide. […] Therefore, deuterium oxide should be a non-toxic substance [D. M. Czajka: Am. J. Physiol.

Data set [4] concerns human colon cancer HCT-116 cells (a moderately drug resistant strain). Put plainly: MTT assay: deuterium oxide in combination with 5-FU. The conditions noted are these: read-out: Inhibition of cell growth (%) (5-FU alone). It counts as cell-based. On the procedure: In vitro inhibition of growth of human colon cancer HCT-116 cells (a moderately drug resistant strain) by deuterium oxide in combination with 5-fluorouracil (5-FU)
Method: 5-fluorouracil was diluted with the sodium chloride deuterium oxide solution according to the concentrations shown in Table 2 and added to a cell culture plate; the in vitro inhibition of tumor cell growth was measured by the MTT assay in the same manner as Example 14.
The assay was repeated one more time.
In general terms: Tetrazolium assays rely on reduction of a dye to a coloured formazan, in cell work by metabolically active cells.

Data set [5] has as its system Ehrlich ascites tumor (EAC). Put plainly: Survival of Ehrlich ascites tumor-bearing mice, intraperitoneal perfusion (lavage) with deuterium oxide and 5-FU. It is filed as in vivo, ICR mice. Particulars: i.p., 10 days; for MST: control 14.1 ± 1.9. On the procedure:
Studying 1: Efficacy of intraperitoneal perfusion (lavage) with deuterium oxide in combination with 5-fluorouracil on Ehrlich ascites tumor (EAC)-bearing mice.
Laboratory animal: 4 to 5 week-aged male ICR mice, provided by Shanghai SIPPR-BK Laboratory Animal Co. Ltd.
1. Modeling: EAC ascitic fluid was taken and adjusted to 1×10^7 cells/ml, which was inoculated into the peritoneal cavity of mice at 0.1 ml/mouse. 2. Grouping and dosing: the animals were randomized 3 days after inoculation, and meanwhile drugs were given to mice in each group, following the dosing scheme shown in Table 10.
In Table 10, “Sodium chloride deuterium oxide solution 0.1 ml/animal+5-FU 20 mg/kg” means that each mouse was given 0.1 ml sodium chloride deuterium oxide solution, in which 5-FU had been dissolved to make a dose of 20 mg/kg.
After the dosing, ascitic fluid was taken from 3 mice from each group, the volume of the ascitic fluid was measured, the number of tumor cells in the ascitic fluid was counted, and the rest of animals were continuously fed. Median survival time (MST) was recorded for animals in each group to evaluate the survival time for each group.
The comparison between the treatment group and the control group was expressed by T/C (%) which is calculated by the following equation: […]
T MST: MST of the treatment group; C MST: MST of the negative control group.
The evaluation criterion uses 125% as a cut-off threshold. When T/C %≧125%, effective, otherwise ineffective.
The mean value was expressed in X±SD. Inter-group analysis was statistically performed with t test. The results were statistically analyzed using SPSS (Statistical Package for the Social Science) 17.0.

Regarding `[2H]O[2H]` [Deuterium oxide], the “concentration in the body that causes a toxic effect” value in data set [1] was 30%. The “G2 Phase” value in data set [2] (control 6.21 ± 4.52) was 13.47 ± 3.94%. For the same molecule, the “S Phase” value in data set [2] (control 13.50 ± 1.33) is on record as 0.31 ± 0.28%. Besides, the “G1 Phase” value in data set [2] (control 80.29 ± 5.02) was found to be 86.23 ± 3.69%. For the same molecule, the “amount in the body that starts to cause toxicity” value in data set [3] is given as 18 kg.
The term inhibition denotes the change of the read-out against control, counted positive when it falls. Turning to `O=c1[nH]cc(F)c(=O)[nH]1` [Example 5-FU, 5-fluorouracil], in data set [4] (5-FU final conc. 0.02 μg/ml), the inhibition at 0.02 µg/mL was determined as 2.18%. Further, the inhibition at 0.05 µg/mL in data set [4] (5-FU final conc. 0.05 μg/ml) came out at 2.55%. The inhibition at 0.1 µg/mL in data set [4] (5-FU final conc. 0.10 μg/ml) amounted to 2.3%. The inhibition at 0.2 µg/mL in data set [4] (5-FU final conc. 0.20 μg/ml) turned out to be 3.24%. The inhibition at 0.39 µg/mL in data set [4] (5-FU final conc. 0.39 μg/ml) was 6.98%. The inhibition at 0.78 µg/mL in data set [4] (5-FU final conc. 0.78 μg/ml) came out at 9.82%. Further, in data set [4] (5-FU final conc. 1.56 μg/ml), the inhibition at 1.56 µg/mL came to 11%. In data set [4] (5-FU final conc. 3.13 μg/ml), the inhibition at 3.13 µg/mL was 18.6%. In addition, the inhibition at 6.25 µg/mL in data set [4] (5-FU final conc. 6.25 μg/ml) is 26.5%. In addition, in data set [4] (5-FU final conc. 12.5 μg/ml), the inhibition at 12.5 µg/mL turned out to be 35.3%. Also, in data set [5] (5-FU 20 mg/kg in NS), the “T/C(%)” value is on record as 154.6% and the “MST” value was found to be 21.8 ± 2.9 days. In data set [5] (5-FU 30 mg/kg in NS), the “T/C(%)” value worked out at 158.1% and the “MST” value is 22.3 ± 4.9 days.
